Measurements reported in patent US12391679B2, “Benzamide-substituted bicyclic imidazo- and pyrazolo-fused -pyridine, -pyrimide, and -pyridazine compounds for treatment of inflammatory diseases” (ONCO3R Therapeutics BV, priority 2019, dated 2025).
Like-named read-outs stand apart in the source and are kept apart here.

Experiments:
[1] = test system: LPS-induced TNFα in monocytes; test: Monocytes assay: LPS-triggered TNFα (ELISA); format: cell-based, human; details: LPS-triggered TNFα inhibition
Outline: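 CD14+ monocytes were magnetically isolated from human buffy-coat PBMCs, preincubated with compound 1 h at 37 °C (0.2% DMSO), then stimulated with LPS at 200 ng/mL for 4 h. Supernatant TNFα was measured by luminescent sandwich ELISA; percentage inhibition was calculated against controls for each concentration.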

[2] = biological target: T1, SIK3 (Homo sapiens, UniProt Q9Y2K2); test: ADP-Glo kinase assay, SIK3; format: biochemical
T1 construct: purchased SignalChem S12-11G-100
T1 sequence (Q9Y2K2 59-365 limits assumed): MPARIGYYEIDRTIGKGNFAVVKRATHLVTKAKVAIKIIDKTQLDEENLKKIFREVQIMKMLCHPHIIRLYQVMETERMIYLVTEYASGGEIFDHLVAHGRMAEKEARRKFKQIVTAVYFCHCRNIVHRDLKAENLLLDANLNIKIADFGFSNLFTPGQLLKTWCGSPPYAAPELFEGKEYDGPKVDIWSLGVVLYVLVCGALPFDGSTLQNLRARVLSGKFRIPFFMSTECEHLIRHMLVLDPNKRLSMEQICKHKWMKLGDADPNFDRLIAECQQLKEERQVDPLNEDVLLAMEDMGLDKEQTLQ
Outline: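 Luminescent ADP-Glo readout of ADP formed. Enzyme-substrate mix with ATP, reaction 120 min at RT, then 40 min ATP depletion and 30 min detection. Controls were 1% DMSO (negative) and 10 μM staurosporine (positive), both final.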

[3] = test system: LPS triggered IL-10 secretion in monocytes; test: Monocytes assay: LPS-triggered IL-10 (ELISA); format: cell-based, human; details: LPS-triggered IL-10 induction, median maximal fold change vs LPS only; for maximal fold induction: Homo sapiens, Monocyte, read-out: IL-10 FCmax median
Experimental: This assay evaluates illustrative compounds of the invention for their inhibition of LPS-induced TNFα and LPS triggered IL-10 secretion in monocytes.
PBMCs are isolated from human blood samples (buffycoats). The buffy coat is aseptically transferred into a 50 mL Falcon tube, and diluted 1/2 in PBS. Falcon tubes are filled with 20 mL Lymphoprep™, on top of which 25 mL of the buffy coat is carefully added, tubes are centrifuged for 35 min at 400 g in temperature controlled centrifuge, without brake, at 25° C. PBMCs are aspirated from the white interface layer between sample and Lymphoprep™. PBMCs are washed five times in PBS.
PBMCs are centrifuged at 300×g for 10 min and resuspended at a density of 1.0*10^7 cells/80 μL Miltenyi buffer (PBS, pH 7.4, 1% FBS, 2 mM EDTA).
Starting from this point of the protocol all steps are performed on ice. 20 μL of CD14+ micro-beads are added per 1.0*10^7 cells, the tube is mixed and incubated for 15 min in the fridge at 4° C. Cell suspension volume is adjusted to total volume of 100 mL using Miltenyi buffer, mixed gently and subsequently centrifuged for 10 min at 300×g. Supernatant is discarded and cell pellet is resuspended in 12 mL of Miltenyi buffer.
Four LS columns are placed in the MACS Separator (magnet) from Miltenyi Biotec, and are prewet by rinsing with 3 mL of MACS buffer per column. Three mL of cell suspension is added onto the column (max 1*10^8 of labelled cells/column), and columns are subsequently washed 3 times with 3 mL of Miltenyi buffer.
The columns are removed from the magnets, and 5 mL of Miltenyi buffer are added to the column to flush out the CD14+ fraction by pushing the plunger into the column. The flushed fractions are collected in a fresh 50 mL Falcon and volume is adjusted to 30 mL using Miltenyi buffer, cells are centrifuged for 10 min at 300×g. The obtained cell pellet is resuspended in 10 mL RPMI w/o FBS, and cell density is determined using a hematologic analyser (Sysmex XS-500i).
A compound dilution plate is made in 100% DMSO by 3-fold dilution of 10 mM stock solution. An intermediate dilution plate (10× final concentration) is made by diluting the compound dilution plate 50-fold in RPMI medium.
10 μL of the 10× final concentration compound is added to the cells and incubated for 1 h at 37° C. before addition of trigger. No trigger conditions/trigger conditions are spiked with equal final DMSO concentrations of 0.2% DMSO. 10 μL of 10×LPS (final conc. 200 ng/mL) solution are added to all wells except for the ‘no trigger wells’ where 10 μL medium is added. Supernatant is collected after 4 h of LPS triggering.
A Lumitrac 600 Greiner 384-well plate is coated with 40 μL of capture antibody (final concentration of 1 μg/mL in 1×PBS) and stored overnight at 4° C. The next day the plate is washed three times with PBST (PBS+0.05% Tween20) and once with PBS followed by the addition of 100 μL of blocking buffer (1% BSA-5% Sucrose) and plates are sealed and incubated for at least 4 h at RT. After washing the plate once with PBST and once with PBS, 40 μL of standard or sample are added (IL-10 standard curve is prepared using a 1/2 serial dilution starting from 2000 pg/mL; dilutions are made in dilution buffer (PBS+1% BSA)). […] Plates are washed twice with PBST, and once with PBS, whereafter 35 μL of Strep-HRP conjugate (0.5 μg/mL final concentration diluted in dilution buffer) is added. Plates are incubated in the dark, at RT for at least 45 min but no longer than 1 h. Plates are washed twice with PBST, and once with PBS. Thereafter, 50 μL of luminol substrate is added to each well (prepared according to manufacturer's instructions), and incubated for 5 min at RT protected from light.
To quantify these increases, fold changes (FC) compared to ‘LPS only’ are calculated for each concentration tested and the maximal FC is calculated (IL-10 FCmax): […]

Row | SMILES | EC50 ([1]; Homo sapiens, Monocyte) [nM] | IC50 [2] [nM] | maximal fold induction [3] | EC50 [1] [nM] | IC50 ([2]; ADP-Glo, AMARA 45 μM, 5 μM ATP, 120 min, average IC50) [nM] | IL-10 FCmax median [3]
1 | COc1cc(-c2cnc3cc(C(C)(C#N)CO)ccn23)cc(OC(F)F)c1C(=O)NC1CC1 (centres unmarked) [Cpd 176, 4-[7-(1-cyano-2-hydroxy-1-methyl-ethyl)imidazo[1,2-a]pyridin-3-yl]-N-cyclopropyl-2-(difluoromethoxy)-6-methoxy-benzamide] | 100 to 1000 | 10 to 100 | 1.5 to 4.5 |  |  | 
2 | COc1cc(-c2cnc3cc([C@@](C)(C#N)CO)ccn23)cc(OC(F)F)c1C(=O)NC1CC1 (single isomer, unassigned) [Cpd 190, 4-[7-(1-cyano-2-hydroxy-1-methyl-ethyl)imidazo[1,2-a]pyridin-3-yl]-N-cyclopropyl-2-(difluoromethoxy)-6-methoxy-benzamide] |  |  |  | 1000 to 5000 | 10 to 100 | + (+ ≤1.5)
3 | COc1cc(-c2cnc3cc(C4(C#N)COC4)ccn23)cc(OC(F)F)c1C(=O)NC1CC1 [Cpd 117, 4-[7-(3-cyanooxetan-3-yl)imidazo[1,2-a]pyridin-3-yl]-N-cyclopropyl-2-(difluoromethoxy)-6-methoxy-benzamide] | 100 to 1000 | 0.01 to 10 | 1.5 to 4.5 |  |  | 
4 | COc1cc(-c2cnn3cc(C(C)(C)C#N)ccc23)cc(OC(F)F)c1C(=O)N[C@@H]1C[C@@H]1F [Cpd 219, 4-[6-(1-cyano-1-methyl-ethyl)pyrazolo[1,5-a]pyridin-3-yl]-2-(difluoromethoxy)-N-[(1R,2S)-2-fluorocyclopropyl]-6-methoxy-benzamide] | 0.1 to 100 |  | < 1.5 |  |  | 
5 | COc1cc(-c2cnc3cc(C(C)(C)C#N)ccn23)cc(OC(F)F)c1C(=O)NC1CC1 [Cpd 19, 4-[7-(1-cyano-1-methyl-ethyl)imidazo[1,2-a]pyridin-3-yl]-N-cyclopropyl-2-(difluoromethoxy)-6-methoxy-benzamide] | 100 to 1000 | 0.01 to 10 | < 1.5 |  |  | 
6 | COc1cc(-c2cnc3cc(C4(F)COC4)ccn23)cc(OC(F)F)c1C(=O)N[C@@H]1C[C@@H]1F [Cpd 224, 2-(difluoromethoxy)-N-[(1R,2S)-2-fluorocyclopropyl]-4-[7-(3-fluorooxetan-3-yl)imidazo[1,2-a]pyridin-3-yl]-6-methoxy-benzamide] | 100 to 1000 | 0.01 to 10 | 1.5 to 4.5 |  |  | 
7 | COc1cc(-c2cnn3cc(C4(C#N)CCOCC4)ccc23)cc(OC(F)F)c1C(=O)NC1CC1 [Cpd 237, 4-[6-(4-cyanotetrahydropyran-4-yl)pyrazolo[1,5-a]pyridin-3-yl]-N-cyclopropyl-2-(difluoromethoxy)-6-methoxy-benzamide] | 100 to 1000 | 0.01 to 10 | < 1.5 |  |  | 
8 | COc1cc(-c2cnc3cc(C4(O)CCOCC4)ccn23)cc(OC(F)F)c1C(=O)NC1CC1 [Cpd 170, N-cyclopropyl-2-(difluoromethoxy)-4-[7-(4-hydroxytetrahydropyran-4-yl)imidazo[1,2-a]pyridin-3-yl]-6-methoxy-benzamide] | 1000 to 5000 | 10 to 100 | 1.5 to 4.5 |  |  | 
9 | COc1cc(-c2cnc3cc(C4CCCN4C)ccn23)cc(OC(F)F)c1C(=O)NC1CC1 (centres unmarked) [Cpd 171, N-cyclopropyl-2-(difluoromethoxy)-6-methoxy-4-[7-(1-methylpyrrolidin-2-yl)imidazo[1,2-a]pyridin-3-yl]benzamide] | 1000 to 5000 | 10 to 100 | 1.5 to 4.5 |  |  | 
10 | COc1cc(-c2cnc3cc(C(C)(C)C#N)ccn23)cc(OC(F)F)c1C(=O)NCC1CC1 [Cpd 39, 4-[7-(1-cyano-1-methyl-ethyl)imidazo[1,2-a]pyridin-3-yl]-N-(cyclopropylmethyl)-2-(difluoromethoxy)-6-methoxy-benzamide] | 100 to 1000 | 0.01 to 10 | 1.5 to 4.5 |  |  | 
11 | COc1cc(-c2cnc3cc(C(C)(C)C#N)cnn23)cc(OC(F)F)c1C(=O)N[C@@H]1C[C@@H]1F [Cpd 228, 4-[7-(1-cyano-1-methyl-ethyl)imidazo[1,2-b]pyridazin-3-yl]-2-(difluoromethoxy)-N-[(1R,2S)-2-fluorocyclopropyl]-6-methoxy-benzamide] | 100 to 1000 | 0.01 to 10 | < 1.5 |  |  | 
12 | COc1cc(-c2cnn3cc(C(C)(C)CO)ccc23)cc(OC(F)F)c1C(=O)N[C@@H]1C[C@@H]1F [Cpd 242, 2-(difluoromethoxy)-N-[(1R,2S)-2-fluorocyclopropyl]-4-[6-(2-hydroxy-1,1-dimethyl-ethyl)pyrazolo[1,5-a]pyridin-3-yl]-6-methoxy-benzamide] | 0.1 to 100 | 0.01 to 10 | < 1.5 |  |  | 
13 | COc1cc(-c2cnn3cc(C4(O)CCC4)ccc23)cc(OC(F)F)c1C(=O)N[C@@H]1C[C@@H]1F [Cpd 266, 2-(difluoromethoxy)-N-[(1R,2S)-2-fluorocyclopropyl]-4-[6-(1-hydroxycyclobutyl)pyrazolo[1,5-a]pyridin-3-yl]-6-methoxy-benzamide] | 100 to 1000 | 0.01 to 10 | < 1.5 |  |  | 
14 | COc1cc(-c2cnc3cc(C4(C#N)CCOCC4)ccn23)cc(OC)c1C(=O)NCC(F)(F)F [Cpd 107, 4-[7-(4-cyanotetrahydropyran-4-yl)imidazo[1,2-a]pyridin-3-yl]-2,6-dimethoxy-N-(2,2,2-trifluoroethyl)benzamide] | 100 to 1000 | 0.01 to 10 | 1.5 to 4.5 |  |  | 
15 | [2H]C([2H])([2H])C(C#N)(c1ccc2c(-c3cc(OC)c(C(=O)N[C@@H]4C[C@@H]4F)c(OC(F)F)c3)cnn2c1)C([2H])([2H])[2H] [Cpd 275, 4-[6-[1-cyano-2,2,2-trideuterio-1-(trideuteriomethyl)ethyl]pyrazolo[1,5-a]pyridin-3-yl]-2-(difluoromethoxy)-N-[(1R,2S)-2-fluorocyclopropyl]-6-methoxy-benzamide] | 100 to 1000 |  | 1.5 to 4.5 |  |  | 
16 | COc1cc(-c2cnn3cc(C(C)(C)C#N)ccc23)cc(OC(F)F)c1C(=O)N[C@@H]1C[C@H]1F (single isomer, unassigned) [Cpd 258, 4-[6-(1-cyano-1-methyl-ethyl)pyrazolo[1,5-a]pyridin-3-yl]-2-(difluoromethoxy)-N-(2-fluorocyclopropyl)-6-methoxy-benzamide] |  |  |  | 100 to 1000 |  | + (+ ≤1.5)
17 | COc1cc(-c2cnn3cc(C(C)(C)C#N)ccc23)cc(OC(F)F)c1C(=O)N[C@@H]1C[C@H]1F (single isomer, unassigned) [Cpd 257, 4-[6-(1-cyano-1-methyl-ethyl)pyrazolo[1,5-a]pyridin-3-yl]-2-(difluoromethoxy)-N-(2-fluorocyclopropyl)-6-methoxy-benzamide] | 100 to 1000 |  | 1.5 to 4.5 |  |  | 
